This is an account of results in patent publication EP4424699A1, “HBV CORE PROTEIN BINDING COMPOUNDS AND USES THEREOF” (Julius-Maximilians-Universität Würzburg, priority 2023, dated 2024).

Positions of bridges follow the written chain, without caps; N, C: chain ends. Non-standard residues stand in square brackets, D forms with d. Residues, ends and D or L forms follow the SMILES beside them. Chains are numbered I, II in the order given. AEEA = NCCOCCOCC(=O)O Some results are limits rather than exact numbers.

Data set [1] relates to HBV production in Hep G2 human hepatoblastoma cell lines. The following applies: cited from earlier work; for IC50: inhibition of HBV production.
Data set [2] concerns the target T1, HBc capsids (Hepatitis B virus genotype D subtype ayw, UniProt P03146). The following applies: monomeric peptides; cited from earlier work.
Data set [3] addresses HBc's interaction to the surface protein L-HBs (Hepatitis B virus genotype D subtype ayw, UniProt P03146). The following applies: result in words; cited from earlier work.
Data set [4] addresses T2, HBc (Hepatitis B virus genotype D subtype ayw, UniProt P03146).
T2 construct: Full length wild type (fl wt) HBc; made in house; host or cells: E. coli
The data set can be described thus: Turbidity assay of HBc solutions at 350 nm. The settings on record: 50 µM HBc solution, RT. The method, then:
The concentrations of the P1-, P2- and SLLGRM-dimers were varied between 0.1-100 µM and the concentration of HBc kept constant at 10 µM for the P1- and P2-dimer and at 50 µM for the SLLGRM-dimer. All experiments were performed using a standard photometer (GENESYS™ UV/VIS spectral photometer, Thermo Fisher Scientific, Hillsboro, OR, USA) at RT and at a wavelength of 350 nm using disposable UV transparent cuvettes.

Data set [5] can be described thus: physchem. The following applies: buffer obtained from the dialysis of capsids (buffer A), pH 7.5, aqueous buffer. The method, then: Purified and pooled fractions (ca 8 ml) of capsids were filtered (Rotilabo syringe filter with a pore size of 220 nm, Carl Roth GmbH Co. KG, Karlsruhe, Germany), dialysed against 1.4 L buffer A (40 mM HEPES, 200 mM NaCl, 1 mM MgCl2, 1 mM CaCl2, pH 7.5) using a dialysis membrane tube (Spectra Por Biotech cellulose ester tube, 1 MDa MWCO, Spectrum Laboratories, Inc., Rancho Dominguez, CA, USA). The dialysis was performed at 4 °C under gentle stirring for 16 h overnight. Next day, the dialysed sample was removed from the dialysis tube and concentrated in a centrifuge using a concentrator (30 kDa MWCO Spin-X UF 6 mL, Corning Inc., Corning, NY, USA). Before the determination of the concentration by the Bradford assay (Roti Nanoquant, Carl Roth GmbH Co. KG, Karlsruhe, Germany) the concentrate was filtered (centrifugal filter unit Ultrafree MC, pore size of 100 nm, Merck KGaA, Darmstadt, Germany). The dimeric peptides were dissolved in the buffer obtained from the dialysis of capsids. […] Before filling the ITC cell and syringe, all samples were degassed for 10 minutes at 20 °C (ThermoVac, Malvern Panalytical, Malvern, Worcestershire, UK). Using a MicroCal iTC200 instrument (Malvern Panalytical, Malvern, Worcestershire, UK) solutions of dimeric peptides were titrated into solutions of capsids according to specifications in the Table 2. […]

The target in data set [6] is T1, HBc capsids. As to the kind of experiment: Cryo-EM of HBc capsids in complex with peptide dimers. The class given is binding. Further details: Full length wild type (fl wt) HBc; made in house; host or cells: E. coli. The following applies: from EM-maps. How it is done:
In a plasma cleaner (model PDC-002. Harrick Plasma, Ithaca, NY, USA) holey carbon grids (R1.2/1.3, 300 mesh Cu grids, Quantifoil Micro Tools, Jena, Germany) were made hydrophilic by plasma discharging. This was done at a pressure of 29 Pa for 2 minutes using ambient air as plasma medium at "medium power" of the instrument. First, solutions of purified HBc (200 µM) in complex with the P1dC- and the SLLGRM-dimer (each 400 µM) were prepared in buffer A and 3.5 µl aliquots of each sample were applied onto the grids. For plunge freezing of grids ethane was used as medium (liquefied by liquid nitrogen) with the help of a Vitrobot (mark IV, FEI Company, Hillsboro, OR, USA) using filter papers of Whatman (type 541). The Vitrobot had following settings: no wait and drain times, 6 s of blot time, blot force of 25 and a nominal humidity of 100 %. The frozen grids were stored in liquid nitrogen for at least one night before being used for image acquisition.
Cryo-EM was done as previously described (Makbul, Kraft, et al., 2021). In brief: Movies were acquired with the software EPU on a Krios G3 electron microscope equipped with a Falcon III camera (Thermo Fisher Scientific, Hillsboro, OR, USA) in linear mode at a magnification of 75,000 with an accelerating voltage of 300 kV. The total exposure was 40 e-/Å^2 and was fractionated across 20 fractions. […]

Data set [7] has as its target T3, fl wt HBc capsids (Hepatitis B virus genotype D subtype ayw, UniProt P03146).
T3 construct: Full length wild type (fl wt) HBc; made in house; host or cells: E. coli
The data set can be described thus: Isothermal titration calorimetry (ITC) of peptide dimers with HBc capsids. The class given is binding. The method, then:
Binding stoichiometry, binding affinity and thermodynamic parameters were determined. Table 2 iTC200 instrument's specifications used for the interaction analysis between peptide-dimers and capsids.
(Isothermal titration calorimetry measures the heat released or taken up as one component is titrated into another.)

Data set [8] has as its target full-length wild type HBc (fl wt HBc) (Hepatitis B virus genotype D subtype ayw, UniProt P03146). The following applies: result in words; cited from earlier work.
The target in data set [9] is full length wild type HBV core protein (fl wt HBc), capsids (Hepatitis B virus (genotype D; strain ayw)) (UniProt P03146). As to the kind of experiment: ITC KD of the dimer against the literature KD of monomeric SLLGRM.
Data set [10] shares this target. The data set can be described thus: ITC, dimer titrated into fl wt HBc capsids, 20 °C, one site model.
The target is the same in data set [11]. The data set can be described thus: cryo-EM maps of HBc capsids with bound dimer.

Broadly, the IC50 is the concentration that inhibits the measured activity by half. Regarding SLLGRMKGA [22], the IC50 in data set [1] was 2400 nM.

By Kd is commonly meant the equilibrium constant for the complex coming apart. With SLLGRM, the Kd in data set [2] is 130 µM.

For the compound ALLGRMKG [21], the “inhibition of HBc's interaction to L-HBs” value in data set [3] is reported as “inhibited”.

What is called solubility is the concentration that dissolves in the medium under given conditions. Read a high solubility as a readily soluble substance. Regarding `CSCC[C@H](NC(=O)[C@H](CCCNC(=N)N)NC(=O)CNC(=O)[C@H](CC(C)C)NC(=O)[C@H](CC(C)C)NC(=O)[C@@H](N)CO)C(=O)NCCOCCOCC(=O)NCCOCCOCC(=O)NCCOCCOCC(=O)NCCOCCOCC(=O)NCCCC[C@@H](NC(=O)COCCOCCNC(=O)COCCOCCNC(=O)COCCOCCNC(=O)COCCOCCNC(=O)[C@H](CCSC)NC(=O)[C@H](CCCNC(=N)N)NC(=O)CNC(=O)[C@H](CC(C)C)NC(=O)[C@H](CC(C)C)NC(=O)[C@@H](N)CO)C(=O)O` [SLLGRM-dimer] (I: H-SLLGRM[AEEA][AEEA][AEEA][AEEA][dK]-OH / II: H-SLLGRM[AEEA][AEEA][AEEA][AEEA]; amide I:11-II:C; N-terminus and C-terminus assumed), the concentration inducing turbidity entry in data set [4] was “high micromolar concentrations”. Further, the solubility in [5] is no less than 8 mM. Moreover, in [6], the “molar ratio to HBc capsids” value worked out at 0.25. For the same compound, in [7] (KD of dimer versus KD of monomer), the “affinity increase over the respective monomers” value is 26 fold. Further, the Ka in data set [7] (association constant, ITC at 20 °C, refers to monomeric HBc) is 208200 ±31284 (1)/(M). Further, in [7] (binding enthalpy, ITC), the ΔH is -25316 ± 2748 cal/mol. The ΔS in [7] (binding entropy, ITC) is -62 ±10 (cal)/(mol × K). Also, the N in data set [7] (stoichiometry, ITC at 20 °C, one site model, refers to monomeric HBc) amounted to 0.145 ±0.023.

LLGRMK: the “binding to fl wt HBc” value in [8] is given as “bound”.

On to SLLGRMKG [23], for which, in data set [1], the IC50 is 6400 nM.

As for GSLLGRMKGA [Pep2], the “production HB viruses reduced to” value in data set [1] (at high micromolar concentrations) is “ca. 30%”. In data set [1], the IC50 was 800 nM. Moreover, in data set [2], the Kd is 68 µM.

For MHRSLLGRMKGA [Pep1], the Kd in [2] was 26 µM.

In the case of SLLGRM-dimer (peptide), the fold affinity increase over the respective monomer in data set [9] is 26 fold. For the same compound, in data set [10], the Kd amounted to 4.89 µM, the N (stoichiometry) amounted to 0.145, the binding enthalpy (ΔH) is -25300 and the binding entropy (ΔS) is -62. Moreover, the molar ratio in data set [11] stood at 0.25.
